Results reported in publication PMC10664828, “Tetrazole and acylsulfonamide bioisosteric replacements of the carboxylic acid in a dual MCL-1/BCL-xL inhibitor are tolerated” (RSC Advances, 2023).
Like-named read-outs stand apart in the source and are kept apart here.

Columns and labels:
HL60 cells = assay: CellTiter-Blue cell viability assay; assay type: cell-based; details: Homo sapiens
Protocol: Cell viability studies were conducted using the CellTiter-Blue® (Promega, Madison, WI) assay. Briefly, HL60 cells, were seeded in a 96-well plate and maintained at 37 °C with 5% CO2 for 24 h. The cells were then exposed to test compounds at 11 concentrations ranging from 0 to 20 mM. After 72 h, cell viabilities were then determined according to the manufacturer's instructions.

MCL-1 [1] = target: T1, MCL-1 (Homo sapiens, UniProt Q07820); assay: Fluorescence polarization competition assay (FPCA) with FITC-Bak, MCL-1; assay type: binding; details: for MCL-1 inhibition in FPCA (in words): cell-free MCL-1 binding assay; for fold better MCL-1 affinity than parent compound 1: relative to compound 1
T1 construct: His6-MBP (cleaved yes); made in house; host or cells: E. coli
Protocol: The tagged protein was initially purified from the crude cell lysate by IMAC chromatography (GE Healthcare Life Sciences), and after dialysis to remove the imidazole the affinity tag was cleaved using PreScission Protease (GE Healthcare Life Sciences). A Sephacryl S-200 size exclusion column was used as a final purification step before the protein was concentrated with a 10 000 MWCO centrifugal filter concentrator (Millipore).
(§1) Fluorescence polarization experiments were conducted using a BMG PHERAstar FS multimode microplate reader equipped with two PMTs for simultaneous measurements of the perpendicular and parallel fluorescence emission. The assays were performed in black polypropylene 384-well microplate (Costar) with a final volume of […]. […] For the fluorescence polarization competition titrations, an equation derived by Nikolovska-Coleska et al.[16] was used to calculate the Ki from the IC50 data. All experiments were run in three biological replicates, each in triplicate.

[2] = cited from earlier work
BCL-xL [3] = target: T2, BCL-xL (Homo sapiens, UniProt Q07817); details: Table 2; FPCA; read-out: K i (BCL-xL); cited from earlier work
T2 construct: (or 15 nM Bcl-xL^2-212 (R&D Systems)); b80 says SinBiological

MCL-1 [4] = target: T1, MCL-1; details: Table 2; FPCA; read-out: K i (MCL-1); cited from earlier work
BCL-xL [5] = target: T2, BCL-xL; assay: Fluorescence polarization competition assay (FPCA) with FITC-Bak, BCL-xL; assay type: binding; details: for Ki: read-out: K i (BCL-xL)
Protocol: BCl-xL was purchased from SinBiological.
as §1

[6] = HL-60, 72 h, 10% FBS, 72 h, read-out: HL60 IC50
[7] = HL-60, 72 h, […] FBS, 72 h, read-out: HL60 IC50
[8] = Table 1, FPCA, 100 nM Mcl-1 172-327, 10 nM FITC-Bak, read-out: K i
[9] = Table 2, FPCA, read-out: K i (MCL-1)

T1 sequence (Q07820 172-327): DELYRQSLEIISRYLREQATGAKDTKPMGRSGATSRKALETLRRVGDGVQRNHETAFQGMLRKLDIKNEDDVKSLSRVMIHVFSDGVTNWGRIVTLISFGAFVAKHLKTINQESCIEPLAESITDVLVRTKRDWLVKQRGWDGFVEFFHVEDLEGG
T2 sequence (Q07817 2-212): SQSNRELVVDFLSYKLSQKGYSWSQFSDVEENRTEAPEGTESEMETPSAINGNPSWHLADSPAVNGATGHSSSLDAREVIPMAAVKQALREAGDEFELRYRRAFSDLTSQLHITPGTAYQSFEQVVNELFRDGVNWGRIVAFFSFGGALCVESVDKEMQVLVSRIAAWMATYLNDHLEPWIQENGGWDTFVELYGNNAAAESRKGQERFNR

## CC(C)CN(c1ccc(C(=O)O)c(O)c1)S(=O)(=O)c1ccc(Oc2ccccc2)cc1 [Compound 1]
HL60 cells; [6]
  IC50: > 120 µM
HL60 cells; [7]
  IC50: 18.5 µM

## COC(=O)c1ccc(N(CC(C)C)S(=O)(=O)c2ccc(Oc3ccccc3)cc2)cc1O [Compound 2, Methyl 2-hydroxy-4-(N-isobutyl-4-phenoxyphenylsulfonamido)benzoate]
MCL-1 [1]
  MCL-1 inhibition in FPCA (in words): inactive
MCL-1 [1]; read-out: K i
  Ki: > 500 µM
HL60 cells; [6]
  IC50: 76.4 µM
HL60 cells; [7]
  IC50: 68.1 µM

## CC(=O)OCOC(=O)c1ccc(N(CC(C)C)S(=O)(=O)c2ccc(Oc3ccccc3)cc2)cc1O [Compound 3, Acetoxymethyl 2-hydroxy-4-(N-isobutyl-4-phenoxyphenylsulfonamido)benzoate]
MCL-1 [1]
  MCL-1 inhibition in FPCA (in words): inactive
MCL-1 [1]; read-out: K i
  Ki: > 500 µM
HL60 cells; [6]
  IC50: > 120 µM
HL60 cells; [7]
  IC50: 46.4 µM

## CC(C)CN(c1ccc(C(=O)NO)c(O)c1)S(=O)(=O)c1ccc(Oc2ccccc2)cc1 [Compound 4, N,2-Dihydroxy-4-(N-isobutyl-4-phenoxyphenylsulfonamido)benzamide]
MCL-1 [1]; [8]
  Ki: 70.6 ± 5.8 µM
[2]; value of the functional group
  pKa: 8–9

## CC(C)CN(c1ccc(-c2nn[nH]n2)cc1)S(=O)(=O)c1ccc(Oc2ccccc2)cc1 [Compound 5, N-(4-(2H-Tetrazol-5-yl)phenyl)-N-isobutyl-4-phenoxybenzenesulfonamide]
MCL-1 [1]; [8]
  Ki: 3.29 ± 0.26 µM
MCL-1 [1]
  fold better MCL-1 affinity than parent compound 1: ≥ 2 fold
[2]; value of the functional group
  pKa: 4–5
HL60 cells; [6]
  IC50: > 120 µM
HL60 cells; [7]
  IC50: 15.7 µM

## CC(C)CN(c1ccc(-c2cc(=O)[nH]o2)cc1)S(=O)(=O)c1ccc(Oc2ccccc2)cc1 [Compound 6, N-Isobutyl-N-(4-(3-oxo-2,3-dihydroisoxazol-5-yl)phenyl)-4-phenoxybenzenesulfonamide]
MCL-1 [1]
  MCL-1 inhibition in FPCA (in words): no inhibition
MCL-1 [1]; read-out: K i
  Ki: > 500 µM
[2]; value of the functional group
  pKa: 4–5

## Cc1cc(Oc2ccc(S(=O)(=O)N(CC(C)C)c3ccc(O)c(C(=O)O)c3)cc2)cc(C)c1Cl [Compound 6e-OH-5, reference compound]
BCL-xL [3]
  Ki: 2.19 ± 0.19 µM
HL60 cells; [6]
  IC50: > 120 µM
HL60 cells; [7]
  IC50: 9.82 µM
MCL-1 [4]
  Ki: 0.778 ± 0.041 µM

## CS(=O)(=O)NC(=O)c1ccc(N(Cc2ccccc2)S(=O)(=O)c2ccc(Oc3ccccc3)cc2)cc1O [Compound 7a, 4-(N-Benzyl-4-phenoxyphenylsulfonamido)-2-hydroxy-N-(methylsulfonyl)benzamide]
MCL-1 [1]; [8]
  Ki: 2.94 ± 0.35 µM
MCL-1 [1]; [9]
  Ki: 2.94 ± 0.35 µM
MCL-1 [1]
  fold better MCL-1 affinity than parent compound 1: ≥ 2 fold
BCL-xL [5]
  Ki: 7.22 ± 1.07 µM
BCL-xL [5]; relative to 17cd
  fold weaker BCL-xL inhibition than parent compound 17cd: about 4 fold

## O=C(NS(=O)(=O)c1ccccc1)c1ccc(N(Cc2ccccc2)S(=O)(=O)c2ccc(Oc3ccccc3)cc2)cc1O [Compound 7b, 4-(N-Benzyl-4-phenoxyphenylsulfonamido)-2-hydroxy-N-(phenylsulfonyl)benzamide]
MCL-1 [1]; read-out: K i
  Ki: 1.95 ± 0.22 µM
MCL-1 [1]
  fold better MCL-1 affinity than parent compound 1: ≥ 2 fold
BCL-xL [5]
  Ki: 2.34 ± 0.22 µM
BCL-xL [5]; relative to 7a
  fold improvement in BCL-xL inhibitory activity: 3 fold

## O=C(NS(=O)(=O)c1ccc(NCC2CCOCC2)c([N+](=O)[O-])c1)c1ccc(N(Cc2ccccc2)S(=O)(=O)c2ccc(Oc3ccccc3)cc2)cc1O [Compound 7c, 4-(N-Benzyl-4-phenoxyphenylsulfonamido)-2-hydroxy-N-((3-nitro-4-(((tetrahydro-2H-pyran-4-yl)methyl)amino)phenyl)sulfonyl)benzamide]
MCL-1 [1]; [9]
  Ki: 1.23 ± 0.15 µM
BCL-xL [5]
  Ki: 1.05 ± 0.14 µM

## Cc1cc(Oc2ccc(S(=O)(=O)N(Cc3ccccc3)c3ccc(C(=O)NS(=O)(=O)c4ccc(NCC5CCOCC5)c([N+](=O)[O-])c4)c(O)c3)cc2)cc(C)c1Cl [Compound 7d, 4-(N-Benzyl-4-(4-chloro-3,5-dimethylphenoxy)phenylsulfonamido)-2-hydroxy-N-((3-nitro-4-(((tetrahydro-2H-pyran-4-yl)methyl)amino)phenyl)sulfonyl)benzamide]
MCL-1 [1]; [9]
  Ki: 0.8 ± 0.07 µM
BCL-xL [5]
  Ki: 1.82 ± 0.18 µM
HL60 cells; [6]
  IC50: > 120 µM
HL60 cells; [7]
  IC50: 7.45 µM

## CC(C)CN(c1ccc(C#N)c(O)c1)S(=O)(=O)c1ccc(Oc2ccccc2)cc1 [Compound 8, N-(4-Cyano-3-hydroxyphenyl)-N-isobutyl-4-phenoxybenzenesulfonamide]
MCL-1 [1]
  MCL-1 inhibition in FPCA (in words): no inhibition
MCL-1 [1]; read-out: K i
  Ki: > 500 µM
[2]; cyanophenol, no reference given
  pKa: about 7

## Cc1cc(Oc2ccc(S(=O)(=O)N(Cc3ccccc3)c3ccc(C(=O)O)c(O)c3)cc2)cc(C)c1Cl [Compound 17cd, reference compound]
HL60 cells; [6]
  IC50: 53.2 µM
HL60 cells; [7]
  IC50: 5.79 µM
HL60 cells; HL-60, text of introduction, read-out: IC50, viability of human leukemia HL60 cells
  IC50: 18.5 µM

## Cc1cc(Oc2ccc(S(=O)(=O)N(Cc3ccccc3)c3ccc(O)c(C(=O)O)c3)cc2)cc(C)c1Cl [Compound 27, 5-(N-Benzyl-4-(4-chloro-3,5-dimethylphenoxy)phenylsulfonamido)-2-hydroxybenzoic acid]
MCL-1 [1]; [9]
  Ki: 1.4 ± 0.47 µM
BCL-xL [5]; Table 2, FPCA, 15 nM Bcl-xL 2-212, 10 nM FITC-Bak
  Ki: 1.82 ± 0.23 µM

## Cc1cc(Oc2ccc(S(=O)(=O)N(Cc3ccccc3)c3ccc(O)c(C(=O)NS(=O)(=O)c4ccc(NCC5CCOCC5)c([N+](=O)[O-])c4)c3)cc2)cc(C)c1Cl [Compound 29, 5-(N-Benzyl-4-(4-chloro-3,5-dimethylphenoxy)phenylsulfonamido)-2-hydroxy-N-((3-nitro-4-(((tetrahydro-2H-pyran-4-yl)methyl)amino)phenyl)sulfonyl)benzamide]
MCL-1 [1]; [9]
  Ki: 1.01 ± 0.08 µM
BCL-xL [5]
  Ki: 1.54 ± 0.23 µM
